Assay [1] deals with T1, Serine/threonine-protein kinase TNNI3K (Homo sapiens) (UniProt Q59H18).
T1 sequence (whole entry): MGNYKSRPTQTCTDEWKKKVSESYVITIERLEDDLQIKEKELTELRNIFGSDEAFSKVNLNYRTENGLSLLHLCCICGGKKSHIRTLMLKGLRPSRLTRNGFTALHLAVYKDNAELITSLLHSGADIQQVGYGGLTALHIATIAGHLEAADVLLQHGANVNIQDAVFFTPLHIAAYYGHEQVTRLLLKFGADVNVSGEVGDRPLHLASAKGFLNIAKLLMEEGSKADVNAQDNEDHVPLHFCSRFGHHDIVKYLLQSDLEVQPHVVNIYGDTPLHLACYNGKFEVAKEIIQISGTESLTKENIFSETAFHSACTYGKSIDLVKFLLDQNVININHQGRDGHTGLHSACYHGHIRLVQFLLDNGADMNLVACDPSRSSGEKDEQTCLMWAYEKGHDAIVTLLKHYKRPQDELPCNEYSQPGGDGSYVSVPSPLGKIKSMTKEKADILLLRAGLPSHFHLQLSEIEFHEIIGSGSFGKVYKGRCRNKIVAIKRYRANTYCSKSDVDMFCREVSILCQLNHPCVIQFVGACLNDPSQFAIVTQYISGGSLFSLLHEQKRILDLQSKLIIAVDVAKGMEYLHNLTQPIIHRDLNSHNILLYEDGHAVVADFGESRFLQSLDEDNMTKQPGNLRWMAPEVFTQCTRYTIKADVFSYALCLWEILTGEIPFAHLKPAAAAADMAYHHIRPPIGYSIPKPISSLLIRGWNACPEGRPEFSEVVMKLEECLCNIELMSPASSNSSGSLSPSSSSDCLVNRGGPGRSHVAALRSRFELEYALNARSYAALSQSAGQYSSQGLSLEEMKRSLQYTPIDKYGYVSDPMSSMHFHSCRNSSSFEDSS
The conditions noted are these: at 10 µM.

For assay [2], the target named is T2, MAP/microtubule affinity-regulating kinase 4 (Homo sapiens) (UniProt Q96L34).
T2 sequence (whole entry): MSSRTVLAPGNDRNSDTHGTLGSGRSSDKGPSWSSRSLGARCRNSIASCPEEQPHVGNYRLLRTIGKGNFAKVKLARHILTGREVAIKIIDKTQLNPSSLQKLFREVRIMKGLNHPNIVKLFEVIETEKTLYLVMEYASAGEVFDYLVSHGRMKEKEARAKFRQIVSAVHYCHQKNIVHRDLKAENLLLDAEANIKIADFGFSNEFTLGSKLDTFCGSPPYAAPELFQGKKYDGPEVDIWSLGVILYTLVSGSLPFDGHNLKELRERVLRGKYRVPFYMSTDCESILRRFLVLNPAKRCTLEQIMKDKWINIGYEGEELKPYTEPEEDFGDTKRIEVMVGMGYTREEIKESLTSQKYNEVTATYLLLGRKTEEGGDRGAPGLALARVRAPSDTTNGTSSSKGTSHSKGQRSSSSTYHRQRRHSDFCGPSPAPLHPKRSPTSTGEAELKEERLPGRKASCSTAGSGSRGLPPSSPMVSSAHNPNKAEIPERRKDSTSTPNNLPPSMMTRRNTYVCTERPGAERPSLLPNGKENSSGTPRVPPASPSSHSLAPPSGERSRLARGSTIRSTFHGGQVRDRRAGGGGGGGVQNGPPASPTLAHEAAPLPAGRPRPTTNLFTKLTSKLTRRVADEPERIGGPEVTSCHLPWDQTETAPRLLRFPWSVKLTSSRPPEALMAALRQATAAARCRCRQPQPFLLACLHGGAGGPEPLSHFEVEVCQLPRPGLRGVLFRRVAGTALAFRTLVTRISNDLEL
As to the kind of experiment: Selectivity interaction (Ambit KINOMEscan and KiNATiv profiling in Jurkat cells) EUB0000090b MARK4. It is filed as cell-based. The note with it: at 1 µM.

Assay [3] addresses Mitogen-activated protein kinase kinase kinase 10 (Homo sapiens) (UniProt Q02779). As to the kind of experiment: Selectivity interaction (KinomeScan (DiscoverX)) EUB0000045b MAP3K10.
In assay [4] the target is T3, Ephrin type-B receptor 6 (Homo sapiens) (UniProt O15197).
T3 sequence (whole entry): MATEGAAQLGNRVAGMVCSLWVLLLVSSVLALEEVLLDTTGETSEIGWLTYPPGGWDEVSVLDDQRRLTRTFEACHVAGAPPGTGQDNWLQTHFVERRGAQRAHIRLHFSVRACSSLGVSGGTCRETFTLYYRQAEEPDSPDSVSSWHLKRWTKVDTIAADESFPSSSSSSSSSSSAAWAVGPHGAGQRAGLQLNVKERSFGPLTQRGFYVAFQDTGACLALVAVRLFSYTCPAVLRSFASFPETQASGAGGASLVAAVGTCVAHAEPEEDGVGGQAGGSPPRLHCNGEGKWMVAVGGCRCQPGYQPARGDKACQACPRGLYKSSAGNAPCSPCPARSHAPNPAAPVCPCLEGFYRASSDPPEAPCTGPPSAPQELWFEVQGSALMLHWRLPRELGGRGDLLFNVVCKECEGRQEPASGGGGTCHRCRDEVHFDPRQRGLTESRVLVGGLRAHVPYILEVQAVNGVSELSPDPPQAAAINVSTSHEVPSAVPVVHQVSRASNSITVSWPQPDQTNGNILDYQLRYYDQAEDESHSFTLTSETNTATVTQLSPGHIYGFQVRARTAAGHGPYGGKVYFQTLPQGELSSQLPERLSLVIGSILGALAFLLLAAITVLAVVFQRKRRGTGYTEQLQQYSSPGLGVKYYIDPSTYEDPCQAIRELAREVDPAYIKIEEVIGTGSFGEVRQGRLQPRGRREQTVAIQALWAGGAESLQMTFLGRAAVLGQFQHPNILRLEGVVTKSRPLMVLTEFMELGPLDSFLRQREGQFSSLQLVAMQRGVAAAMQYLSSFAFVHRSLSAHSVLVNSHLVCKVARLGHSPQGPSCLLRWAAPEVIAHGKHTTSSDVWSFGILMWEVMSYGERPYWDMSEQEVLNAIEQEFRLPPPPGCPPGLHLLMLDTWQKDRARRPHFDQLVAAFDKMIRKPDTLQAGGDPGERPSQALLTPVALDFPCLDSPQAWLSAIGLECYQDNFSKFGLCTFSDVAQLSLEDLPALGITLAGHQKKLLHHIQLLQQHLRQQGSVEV
As to the kind of experiment: Selectivity interaction (KinomeScan (DiscoverX)) EUB0001619a EPHB6. The note with it: at 1 µM.

The target in assay [5] is Myosin-IIIa (Homo sapiens) (UniProt Q8NEV4). As to the kind of experiment: Selectivity interaction (KinomeScan (DiscoverX)) EUB0000618a MYO3A. The conditions noted are these: at 10 µM.
Sequence of Myosin-IIIa (Homo sapiens) (Q8NEV4 whole entry): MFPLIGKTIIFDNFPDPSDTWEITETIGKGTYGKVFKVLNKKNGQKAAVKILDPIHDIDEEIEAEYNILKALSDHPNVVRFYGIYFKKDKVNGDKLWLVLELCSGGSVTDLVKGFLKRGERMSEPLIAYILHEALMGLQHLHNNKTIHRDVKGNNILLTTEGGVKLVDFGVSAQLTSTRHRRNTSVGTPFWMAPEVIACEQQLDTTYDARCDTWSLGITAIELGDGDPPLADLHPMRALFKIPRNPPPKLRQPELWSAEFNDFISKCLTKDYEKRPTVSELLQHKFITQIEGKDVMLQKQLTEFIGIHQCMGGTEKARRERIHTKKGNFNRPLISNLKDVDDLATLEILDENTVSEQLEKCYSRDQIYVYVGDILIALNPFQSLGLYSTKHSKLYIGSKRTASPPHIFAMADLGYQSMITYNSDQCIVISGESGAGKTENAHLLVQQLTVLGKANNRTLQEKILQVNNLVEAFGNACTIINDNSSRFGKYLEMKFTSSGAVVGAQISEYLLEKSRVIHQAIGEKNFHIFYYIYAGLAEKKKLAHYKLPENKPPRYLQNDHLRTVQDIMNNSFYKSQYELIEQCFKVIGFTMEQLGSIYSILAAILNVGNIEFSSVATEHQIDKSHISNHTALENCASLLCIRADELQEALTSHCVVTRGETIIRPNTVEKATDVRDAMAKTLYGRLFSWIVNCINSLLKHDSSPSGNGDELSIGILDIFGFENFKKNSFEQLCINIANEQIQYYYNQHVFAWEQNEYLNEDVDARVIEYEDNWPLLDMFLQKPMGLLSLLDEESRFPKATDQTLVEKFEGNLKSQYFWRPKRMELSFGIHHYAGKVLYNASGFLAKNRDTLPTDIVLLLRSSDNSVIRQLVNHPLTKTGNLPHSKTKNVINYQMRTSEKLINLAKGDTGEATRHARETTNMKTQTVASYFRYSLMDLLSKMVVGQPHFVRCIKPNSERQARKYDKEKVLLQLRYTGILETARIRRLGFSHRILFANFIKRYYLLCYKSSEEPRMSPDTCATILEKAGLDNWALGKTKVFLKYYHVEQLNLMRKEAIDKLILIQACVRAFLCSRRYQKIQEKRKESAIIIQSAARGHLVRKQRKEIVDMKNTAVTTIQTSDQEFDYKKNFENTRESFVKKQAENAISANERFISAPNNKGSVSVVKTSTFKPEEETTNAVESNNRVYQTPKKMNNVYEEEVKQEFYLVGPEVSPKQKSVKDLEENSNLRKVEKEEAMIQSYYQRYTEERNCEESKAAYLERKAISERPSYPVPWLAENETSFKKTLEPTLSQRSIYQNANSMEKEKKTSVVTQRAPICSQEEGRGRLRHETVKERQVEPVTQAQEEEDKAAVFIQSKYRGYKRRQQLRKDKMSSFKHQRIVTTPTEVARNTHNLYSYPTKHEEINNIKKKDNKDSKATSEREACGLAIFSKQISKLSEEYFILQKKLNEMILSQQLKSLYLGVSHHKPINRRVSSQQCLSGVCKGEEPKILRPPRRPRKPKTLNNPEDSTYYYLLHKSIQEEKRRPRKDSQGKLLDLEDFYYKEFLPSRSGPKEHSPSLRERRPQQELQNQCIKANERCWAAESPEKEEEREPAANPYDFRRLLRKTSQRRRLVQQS

Structures are written as SMILES.

Sequence of Mitogen-activated protein kinase kinase kinase 10 (Homo sapiens) (Q02779 whole entry, looked up): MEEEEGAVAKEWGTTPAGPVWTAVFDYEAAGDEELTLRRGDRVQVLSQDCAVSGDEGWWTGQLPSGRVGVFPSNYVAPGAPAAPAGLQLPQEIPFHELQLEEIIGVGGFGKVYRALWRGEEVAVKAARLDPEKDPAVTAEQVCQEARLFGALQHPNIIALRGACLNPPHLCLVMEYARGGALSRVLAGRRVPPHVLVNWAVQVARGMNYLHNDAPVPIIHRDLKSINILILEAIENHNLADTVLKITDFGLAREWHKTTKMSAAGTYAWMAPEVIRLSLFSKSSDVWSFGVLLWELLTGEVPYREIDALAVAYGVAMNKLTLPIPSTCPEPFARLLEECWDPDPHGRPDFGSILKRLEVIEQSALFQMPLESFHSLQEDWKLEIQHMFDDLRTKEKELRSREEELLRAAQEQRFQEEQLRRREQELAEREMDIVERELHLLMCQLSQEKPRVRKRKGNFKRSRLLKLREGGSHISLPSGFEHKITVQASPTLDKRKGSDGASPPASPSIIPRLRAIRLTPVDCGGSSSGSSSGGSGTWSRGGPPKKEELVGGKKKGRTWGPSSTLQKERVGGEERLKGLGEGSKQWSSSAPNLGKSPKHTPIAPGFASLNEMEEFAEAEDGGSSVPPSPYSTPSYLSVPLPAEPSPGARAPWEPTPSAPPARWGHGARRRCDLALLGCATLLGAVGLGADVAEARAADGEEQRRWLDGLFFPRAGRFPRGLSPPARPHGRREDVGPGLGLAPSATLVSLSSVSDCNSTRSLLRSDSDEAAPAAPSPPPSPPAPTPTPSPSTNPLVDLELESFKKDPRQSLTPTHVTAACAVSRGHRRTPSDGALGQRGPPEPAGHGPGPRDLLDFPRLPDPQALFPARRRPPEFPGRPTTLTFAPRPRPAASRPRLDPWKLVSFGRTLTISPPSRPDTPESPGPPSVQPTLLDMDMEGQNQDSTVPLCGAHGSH

For the compound `Cc1cc([C@@H](C)Nc2ccccc2C(=O)O)c2nc(N3CCOCC3)cc(=O)n2c1` [AZD-6482], the % of control in assay [1] was found to be 88%.
For `CN(C)C/C=C/C(=O)Nc1ccc(C(=O)N2CCCC(Nc3ncc(Cl)c(-c4c[nH]c5ccccc45)n3)C2)cc1` (stereo unspecified), the % of control in assay [2] turned out to be 100%.
In the case of `C=CC(=O)Nc1cc(-n2c(=O)ccc3cnc4ccc(-c5ccc(NS(C)(=O)=O)cc5)cc4c32)ccc1C`, the % of control in assay [3] (at 1 µM) and in assay [3] (at 10 µM) was 100% throughout.
Regarding `N#Cc1cccc(-c2c[nH]c3ncnc(N4CCOCC4)c23)c1`, the % of control in assay [4] stood at 86%.
Compound `O[C@H]1CC[C@H](Nc2ncc3nc(Nc4c(F)cc(F)cc4F)n([C@H]4CCOC4)c3n2)CC1` registered a % of control in assay [5] of 100%.
